Earlier results on 2 molecules are cited in patent US12528823B2, “Inhibitors of aldose reductase” (Applied Therapeutics, Inc., priority 2019, dated 2026).

The conditions of series [1]: positive control; published/known value; octanol/pH 7.4 phosphate buffer.
Series [2] relates to ischemic injury (cerebral infarction). The settings on record: normal mice; single oral dose either 30 mins before ischemia or 1 h 45 mins after ischemia.

Consider `C[C@]12CC[C@H]3[C@@H](CCC4=CC(=O)CC[C@@]43C)[C@@H]1CC[C@@H]2O` [Testosterone], for which, in series [1], the “Log D” value is listed as 3.0-3.4.

Consider `NC(=O)[C@@H]1C[C@]2(NC(=O)NC2=O)c2cc(F)ccc2O1` [Fidarestat], for which, in series [2], the “reduction in infarct volume resulting from ischemic injury” value was 16-25%.
